In patent US8067599B2 (Hoffman-La Roche Inc., priority 2006, dated 2011) one finds IC50 data, which are given here for three molecules.

SMILES strings stand for the structures.

Assay [1] concerns the target human recombinant PDGFR beta (Homo sapiens, UniProt P09619). Nature of the assay: IC50 determination for inhibitors of PDGFR kinase (IMAP fluorescence polarization). It is filed as biochemical. As to conditions: 48 uM ATP, room temperature, 60 minutes, read-out: IC50 PDGFR kinase inhibition. The protocol: PDGFR assay was carried out with human recombinant PDGFR beta, fluorescein labeled peptide substrate (with a peptide sequence of ALTSNQEYLDLSMPL) and test compounds (in serial dilution) using 384-well plates. Kinase reaction was performed in MOPS buffer (20 mM MOPS pH 7.1, 5 mM Sodium Acetate, 6.25 mM MgCl2, 0.5 mM EDTA, 1 mM DTT, 0.04 mM NaVO4, 0.02% BSA), in the presence of 48 uM ATP, incubated at room temperature for 60 minutes. Reaction was stopped by IMAP Bead Binding System (Molecular Devices). After incubation at room temperature for 2 hours, the reaction product was analyzed on LJL Acquest.
(§1) FP reading (in mP) was used to calculate reaction rate. The assay was semi-automated by Tomtec Quadra workstation.

Assay [2] addresses T1, fusion protein corresponding to mouse Abl (27-end) (Mus musculus, UniProt P00520).
T1 construct: fusion protein corresponding to mouse Abl (27-end)
Nature of the assay: IC50 determination for inhibitors of Abl kinase (IMAP fluorescence polarization). It is filed as biochemical. To be noted: 22.8 uM ATP, 37° C., 60 minutes; read-out: IC50 Abl kinase inhibition. The protocol: Abl assay was done using fusion protein corresponding to mouse Abl (27-end), fluorescein labeled peptide substrate (with a sequence of EAIYAAPFAKKK) and quantified by Molecular Devices' IMAP fluorescence polarization technology. Compounds were tested in serially diluted concentrations in 384 well plates. Kinase reaction was performed in KAB Buffer (10 mM HEPES, pH 7, 50 mM NaCl, 5 mM MgCl2, 1 mM DTT, 0.1 mM NaVO4, 0.02% BSA), in the presence of 22.8 uM ATP, incubated at 37° C. for 60 minutes. Reaction was stopped by IMAP bead mix (at 1:400 diluted). After incubation at room temperature for 3 hours, the reaction product was analyzed on LJL Acquest (excitation 485 nm and Emission 530 nm).
FP reading (in mP) was used to calculate reaction rate. The assay was semi automated by Tomtec Quadra workstation.
A general note: Polarisation of emitted light reports the rotation of a fluorescent probe.

Another assay deals with HCT 116 cells. Description: CellTiter-Glo assay in HCT 116 cells (antiproliferative activity). The format is cell-based. To be noted: Homo sapiens, HCT-116, 120 h, cell viability after 5 days. The protocol: The CellTiter-Glo™ Luminescent Cell Viability Assay (Promega) is a homogeneous method of determining the number of viable cells in culture based on quantitation of the ATP present, which signals the presence of metabolically active cells.
HCT 116 cells (human colon carcinoma, ATCC-No. CCl-247) were cultivated in RPMI 1640 medium with GlutaMAX™ 1 (Invitrogen, Cat-No. 61870-010), 5% Fetal Calf Serum (FCS, Sigma Cat-No. F4135 (FBS)); 100 Units/ml penicillin/100 μg/ml streptomycin (=Pen/Strep from Invitrogen Cat. No. 15140). For the assay the cells were seeded in 384 well plates, 1000 cells per well, in the same medium. The next day the test compounds were added in various concentrations ranging from 30 μM to 0.0015 μM (10 concentrations, 1:3 diluted). After 5 days the CellTiter-Glo™ assay was done according to the instructions of the manufacturer (CellTiter-Glo™ Luminescent Cell Viability Assay, from Promega). In brief: the cell-plate was equilibrated to room temperature for approximately 30 minutes and than the CellTiter-Glo™ reagent was added. The contents were carefully mixed for 15 minutes to induce cell lysis. After 45 minutes the luminescent signal was measured in Victor 2, (scanning multiwell spectrophotometer, Wallac).
• Medium: RPMI 1640 with GlutaMAX™ 1 (Invitrogen, Cat-No. 61870), 5% FCS (Sigma Cat.-No. F4135), Pen/Strep (Invitrogen, Cat No. 15140). • HCT116 (ATCC-No. CCl-247): 1000 cells in 60 μl per well of 384 well plate (Greiner 781098, μClear-plate white) • After seeding incubate plates 24 h at 37° C., 5% CO2 2nd. Day: Induction (Treatment with Compounds, 10 Concentrations):
In order to achieve a final concentration of 30 μM as highest concentration 3.5 μl of 10 mM compound stock solution were added directly to 163 μl media. Then step e) of the dilution procedure described below, was followed.
(In general: In ATP-based viability assays light output follows the ATP content of the culture.)

Assay [3] has as its target T2, mouse full-length Src protein (Mus musculus, UniProt P05480).
T2 construct: mouse full-length Src protein
Description: IC50 determination for inhibitors of Src kinase (IMAP fluorescence polarization). The format is biochemical. As to conditions: 24 uM ATP, 37° C., 60 minutes; read-out: IC50 Src kinase inhibition. The protocol: Src assay was done using mouse full-length Src protein, fluorescein labeled peptide substrate (with a sequence of KVEKIGEGTYGVVYK) and quantified by Molecular Devices' IMAP fluorescence polarization technology. Compounds were tested in serially diluted concentrations in 384 well plates. Kinase reaction was performed in KAB Buffer (10 mM HEPES, pH 7, 50 mM NaCl, 5 mM MgCl2, 1 mM DTT, 0.1 mM NaVO4, 0.02% BSA), in the presence of 24 uM ATP, incubated at 37° C. for 60 minutes. Reaction was stopped by IMAP bead mix (at 1:400 dilution). After incubation at room temperature for 2 hours, the reaction product was analyzed on LJL Acquest (excitation 485 nm and Emission 530 nm).
as §1

T2 sequence (P05480 whole entry): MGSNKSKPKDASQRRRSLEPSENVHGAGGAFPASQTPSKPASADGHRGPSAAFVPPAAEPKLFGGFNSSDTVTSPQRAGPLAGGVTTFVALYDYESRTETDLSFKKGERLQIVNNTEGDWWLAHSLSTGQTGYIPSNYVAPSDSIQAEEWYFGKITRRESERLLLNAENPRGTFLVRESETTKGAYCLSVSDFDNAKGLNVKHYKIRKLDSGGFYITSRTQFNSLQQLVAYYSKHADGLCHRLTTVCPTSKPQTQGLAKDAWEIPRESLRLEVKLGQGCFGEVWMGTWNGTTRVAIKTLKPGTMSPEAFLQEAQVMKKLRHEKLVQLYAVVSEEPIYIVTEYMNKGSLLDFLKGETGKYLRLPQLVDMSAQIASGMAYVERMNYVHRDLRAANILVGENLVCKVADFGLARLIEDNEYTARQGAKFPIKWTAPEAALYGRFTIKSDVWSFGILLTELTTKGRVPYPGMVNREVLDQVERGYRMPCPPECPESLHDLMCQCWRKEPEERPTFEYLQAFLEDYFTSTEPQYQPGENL
T1 sequence (P00520 27-1123 limits assumed): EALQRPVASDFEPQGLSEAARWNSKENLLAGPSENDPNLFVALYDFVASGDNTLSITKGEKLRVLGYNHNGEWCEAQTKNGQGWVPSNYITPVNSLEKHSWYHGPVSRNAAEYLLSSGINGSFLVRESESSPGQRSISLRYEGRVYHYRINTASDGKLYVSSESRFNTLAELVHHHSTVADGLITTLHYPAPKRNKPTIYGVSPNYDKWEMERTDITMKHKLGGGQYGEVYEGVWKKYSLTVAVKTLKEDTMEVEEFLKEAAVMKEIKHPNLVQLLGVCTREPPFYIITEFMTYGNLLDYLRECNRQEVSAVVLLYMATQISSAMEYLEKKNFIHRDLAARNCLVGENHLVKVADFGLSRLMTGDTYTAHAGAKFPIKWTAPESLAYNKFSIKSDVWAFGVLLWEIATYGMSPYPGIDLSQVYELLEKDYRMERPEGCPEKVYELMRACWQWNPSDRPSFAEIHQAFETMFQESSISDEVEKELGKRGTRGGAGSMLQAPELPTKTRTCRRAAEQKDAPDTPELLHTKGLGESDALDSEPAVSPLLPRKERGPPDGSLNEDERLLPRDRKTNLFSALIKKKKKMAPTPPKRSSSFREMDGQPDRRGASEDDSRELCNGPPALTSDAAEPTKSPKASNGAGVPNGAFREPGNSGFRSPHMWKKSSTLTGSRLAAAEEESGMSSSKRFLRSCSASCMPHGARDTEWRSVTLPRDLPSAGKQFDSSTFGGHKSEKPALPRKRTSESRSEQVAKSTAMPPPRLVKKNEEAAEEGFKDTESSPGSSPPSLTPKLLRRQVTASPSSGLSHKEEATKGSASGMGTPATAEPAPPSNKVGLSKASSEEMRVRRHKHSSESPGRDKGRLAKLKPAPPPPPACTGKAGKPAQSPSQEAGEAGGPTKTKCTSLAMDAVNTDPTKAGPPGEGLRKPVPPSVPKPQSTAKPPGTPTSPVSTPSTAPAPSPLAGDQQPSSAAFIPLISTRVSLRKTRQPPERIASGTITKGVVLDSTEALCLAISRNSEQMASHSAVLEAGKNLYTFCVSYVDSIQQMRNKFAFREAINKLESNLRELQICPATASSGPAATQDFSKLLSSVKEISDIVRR
Sequence of human recombinant PDGFR beta (P09619 33-1106): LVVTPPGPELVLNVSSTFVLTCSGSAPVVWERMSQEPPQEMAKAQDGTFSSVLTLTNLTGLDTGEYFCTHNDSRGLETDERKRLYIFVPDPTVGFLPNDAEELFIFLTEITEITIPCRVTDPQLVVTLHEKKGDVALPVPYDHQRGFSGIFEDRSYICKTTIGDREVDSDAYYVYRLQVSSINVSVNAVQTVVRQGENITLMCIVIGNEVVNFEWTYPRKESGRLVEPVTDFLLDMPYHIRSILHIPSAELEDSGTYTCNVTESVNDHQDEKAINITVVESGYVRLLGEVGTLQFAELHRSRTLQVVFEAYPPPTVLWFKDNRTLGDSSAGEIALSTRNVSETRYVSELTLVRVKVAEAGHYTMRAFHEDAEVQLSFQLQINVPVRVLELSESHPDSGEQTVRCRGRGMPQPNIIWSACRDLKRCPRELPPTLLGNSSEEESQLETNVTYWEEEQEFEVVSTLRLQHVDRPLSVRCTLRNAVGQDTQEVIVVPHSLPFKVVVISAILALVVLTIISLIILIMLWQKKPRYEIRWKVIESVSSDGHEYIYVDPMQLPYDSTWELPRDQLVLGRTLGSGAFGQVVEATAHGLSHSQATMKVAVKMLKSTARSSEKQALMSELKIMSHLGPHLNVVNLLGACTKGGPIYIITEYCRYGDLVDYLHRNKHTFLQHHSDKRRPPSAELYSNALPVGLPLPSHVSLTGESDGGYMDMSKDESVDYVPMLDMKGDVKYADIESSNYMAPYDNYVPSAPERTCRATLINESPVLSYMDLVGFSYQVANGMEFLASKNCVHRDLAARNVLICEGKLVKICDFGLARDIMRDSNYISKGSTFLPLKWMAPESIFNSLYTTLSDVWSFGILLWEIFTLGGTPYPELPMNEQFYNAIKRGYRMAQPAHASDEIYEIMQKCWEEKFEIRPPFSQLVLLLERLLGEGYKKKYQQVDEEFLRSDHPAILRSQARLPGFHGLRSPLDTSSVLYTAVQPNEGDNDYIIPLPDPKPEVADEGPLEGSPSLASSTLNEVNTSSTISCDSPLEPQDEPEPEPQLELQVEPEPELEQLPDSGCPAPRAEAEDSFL

`O=C(Nc1ccc(Cl)c(C(=O)Nc2cnc3[nH]ccc3c2)c1)c1ccc(N2CCOCC2)cc1` [Example 2-3, 2-Chloro-5-(4-morpholin-4-yl-benzoylamino)-N-(1H-pyrrolo[2,3-b]pyridin-5-yl)-benzamide]: the concentration for half-maximal inhibition (IC50) (in general, the concentration needed to halve the response being measured) in assay [1] was 10 to 1000 nM; in assay [2], 5 to 1000 nM; in the assay with HCT 116 cells it was 100 to 10000 nM; in assay [3] it was 189 nM.
The like results for `O=C(Nc1ccc(Cl)c(C(=O)Nc2cnc3[nH]ccc3c2)c1)c1ccc(-c2ccccc2)cc1` [Example 2-2, Biphenyl-4-carboxylic acid [4-chloro-3-(1H-pyrrolo[2,3-b]pyridin-5-ylcarbamoyl)-phenyl]-amide] were, in that order, 10 to 1000 nM, 63 nM, 100 to 10000 nM and 5 to 1000 nM.
As to `CN(C)CCOc1cccc(-c2ccc(C(=O)Nc3ccc(Cl)c(C(=O)Nc4cnc5[nH]ccc5c4)c3)cc2)c1` [Example 1-1], the IC50 was 10 to 1000 nM in assay [1], 5 to 1000 nM in assay [2], 1810 nM in the assay with HCT 116 cells and 5 to 1000 nM in assay [3].
